pIC50: −log10 of the molar value. “And” between values parts separate entries of the source, which are not always exact repeats. Equal values may be shown once.
Tests used:
Genome polyprotein [1] = biological target: T1, Genome polyprotein (dengue virus type 2, UniProt P29990); format: functional, Thailand/16681/1984
Genome polyprotein [2] = biological target: T1, Genome polyprotein; format: functional, Thailand/16681/1984; remark: listed apart in the source

T1 sequence (P29990 1346-1475 limits assumed): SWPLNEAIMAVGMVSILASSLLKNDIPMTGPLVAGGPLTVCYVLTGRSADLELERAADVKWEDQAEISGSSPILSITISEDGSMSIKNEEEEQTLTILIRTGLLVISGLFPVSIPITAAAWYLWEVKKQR
T1 sequence (P29990 1476-2093 limits assumed): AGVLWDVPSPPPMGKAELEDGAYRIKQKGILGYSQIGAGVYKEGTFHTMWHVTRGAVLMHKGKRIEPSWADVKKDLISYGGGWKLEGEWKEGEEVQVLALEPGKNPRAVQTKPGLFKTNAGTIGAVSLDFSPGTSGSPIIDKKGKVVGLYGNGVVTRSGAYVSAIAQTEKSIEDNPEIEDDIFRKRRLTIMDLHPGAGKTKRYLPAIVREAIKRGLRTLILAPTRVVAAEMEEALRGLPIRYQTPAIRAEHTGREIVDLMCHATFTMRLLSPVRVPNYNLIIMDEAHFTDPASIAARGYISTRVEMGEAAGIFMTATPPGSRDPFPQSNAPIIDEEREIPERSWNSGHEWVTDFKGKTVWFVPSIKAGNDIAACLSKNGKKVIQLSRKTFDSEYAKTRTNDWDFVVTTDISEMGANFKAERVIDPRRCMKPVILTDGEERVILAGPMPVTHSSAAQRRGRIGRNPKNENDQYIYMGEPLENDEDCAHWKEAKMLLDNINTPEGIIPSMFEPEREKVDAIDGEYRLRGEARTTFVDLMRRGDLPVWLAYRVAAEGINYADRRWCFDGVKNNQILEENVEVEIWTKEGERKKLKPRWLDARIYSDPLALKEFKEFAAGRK

| Compound | pIC50 (Genome polyprotein [1]) | pIC50 (Genome polyprotein [2]) |
| --- | --- | --- |
| Cn1nc([C@H](C#N)Nc2cccc([C@H]3CCOC3)c2)cc1C1CC1 | < 4.00 | < 4.00 |
| Cc1ncc(-c2cc(F)cc(C(=O)Nc3ccc4c(c3)CNC4)c2)o1 | < 4.00 | < 4.00 |
| CO[C@H]1C[C@H](n2cc3c(C(=O)Nc4ccc5c(c4)CNC5)cc(Cl)cc3n2)C1 | < 4.00 | < 4.00 |
| O=C(Nc1ccc2c(c1)CNC2)c1cc(F)cc(-c2cn[nH]c2)c1 | < 4.00 | 4.13 |
| O=C(Nc1ccc2c(c1)CNC2)c1cc(F)cc(-c2ccnc3c2CCO3)c1 | 4.08 | < 4.00 |
| COc1ccc(OC)c([C@H]2CCCN2C(=O)Nc2ccc3c(c2)CNC3)c1 | < 4.00 | < 4.00 |
| Fc1cc(CNc2ccc3c(n2)CNC3)c2cn[nH]c2c1 | < 4.00 | < 4.00 |
| O=C(Nc1cc(-c2cccnc2)ccn1)c1cc2n(n1)CCC2 | < 4.00 | < 4.00 |
| Cc1c(C(=O)Nc2cc(-c3cccnc3)ccn2)cc(C2CCCC2)n1C | < 4.00 | < 4.00 |
| CC(=O)N1CCCc2cc(NC(=O)c3cc(C4CC4)n(C)c3C)ccc21 | < 4.00 | < 4.00 |
| O=C(Nc1cc(-c2cccnc2)ccn1)c1csc(C[C@H]2CCCNC2)n1 | < 4.00 | < 4.00 |
| Cc1c(C(=O)Nc2cc(-c3cccnc3)ccn2)cnn1C1CC1 | < 4.00 | < 4.00 |
| CNC(=O)[C@H](Nc1ccc2c(c1)CNC2)c1cc(Cl)cc2[nH]c(-c3ccccc3)nc12 | 4.30 | 4.67 and 4.63 |
| O=C(Nc1ccc2c(c1)CN[C@H]2C[C@H](O)CO)c1cc(F)cc2[nH]ncc12 | 4.40 | 4.63 and 4.66 |
| O=C(Nc1cc([C@H]2CCOC2)ccn1)c1cc(F)cc2[nH]ccc12 | < 4.00 | < 4.00 |
| O=C(Nc1ccc2c(c1)CNC2)c1cc(Cl)cc2nn(C3CCOCC3)cc12 | 4.04 | < 4.00 |
| O=C(NCCCF)[C@H](Nc1ccc2c(c1)CNC2)c1cc(Cl)cc(C2CC2)c1 | < 4.00 | < 4.00 |
| O=C(Nc1ccc2c(c1)CNC2)c1cc(F)cc(-c2ccc3c(=O)[nH]ncc3c2)c1 | 4.60 and 4.64 | 4.44 and 4.47 |
| O=C(Nc1cc(-c2cccnc2)ccn1)c1cccc(C2CC2)c1 | < 4.00 | < 4.00 |
| O=C(Nc1ccc2c(c1)CNC2)c1ccc2ncsc2n1 | < 4.00 | < 4.00 |
| NC[C@H]1OCCc2sc(C(=O)Nc3cc(-c4cccnc4)ccn3)cc21 | < 4.00 | < 4.00 |

| Compound | pIC50 (Genome polyprotein [1]) | pIC50 (Genome polyprotein [2]) |
| --- | --- | --- |
| CN(C)c1nc(-c2cc(F)cc(C(=O)Nc3ccc4c(c3)CNC4)c2)cs1 | < 4.00 | < 4.00 |
| O=C(Nc1cc([C@H]2CCOC2)ccn1)c1cc(F)cc2[nH]ncc12 | < 4.00 | < 4.00 |
| CC(C)n1cc(C(=O)Nc2cc(-c3cccnc3)ccn2)cn1 | < 4.00 | < 4.00 |
| Nc1n[nH]c2cc(C(=O)Nc3ccc4c(c3)CNC4)ccc12 | < 4.00 | < 4.00 |
| CCCn1cc2c(C(=O)Nc3ccc4c(c3)CNC4)cc(Cl)cc2n1 | < 4.00 | < 4.00 |
| O=C(Nc1cc([C@H]2CCOC2)ccn1)c1ccc2scnc2c1 | < 4.00 | < 4.00 |
| CC(C)NC(=O)[C@H](Nc1ccc2c(c1)CN(C)C2(C)C)c1cc(Cl)cc2[nH]ncc12 | 4.00 | 4.55 |
| O=C(NCCOCC1CC1)[C@H](Nc1ccc2c(c1)CNC2)c1cc(Cl)cc(C2CC2)c1 | < 4.00 | < 4.00 |
| Cc1cc(C(=O)Nc2cc(-c3cccnc3)ccn2)c(C)n1C | < 4.00 | < 4.00 |
| O=C(Nc1cc(-c2cccnc2)ccn1)c1nnc(C2CC2)s1 | < 4.00 | < 4.00 |
| O=C(Nc1ccc2c(c1)CN[C@H]2c1ccccc1)c1cc(F)cc2[nH]ncc12 | < 4.00 | 4.18 |
| O=C1CCc2c(cccc2C(=O)Nc2ccc3c(c2)CNC3)N1 | < 4.00 | < 4.00 |
| CCCCNC(=O)[C@H](Nc1ccc2c(c1)CNC2)c1cc(Cl)cc(C2CC2)c1 | < 4.00 | < 4.00 |
| O=C(Nc1cc(-c2cccnc2)ccn1)c1cn([C@H]2CCCNC2)nn1 | < 4.00 | < 4.00 |
| O=S(=O)(Nc1ccc2c(c1)CNC2)c1cccc2[nH]ncc12 | < 4.00 | < 4.00 |
| O=C(Nc1ccc2c(c1)CNC2)c1cc(F)cc(-c2cccnc2)c1 | < 4.00 | < 4.00 |
| O=C(NCC(F)F)[C@H](Nc1ccc2c(c1)CNC2)c1cc(Br)cc2[nH]ccc12 | < 4.00 | < 4.00 |
| O=C1Cc2c(cccc2C(=O)Nc2cc([C@H]3CCOC3)ccn2)N1 | < 4.00 | < 4.00 |
| O=C(Nc1ccc2c(c1)CNC2)c1cccc2c1[C@]1(CCNC1)C(=O)N2 | < 4.00 | < 4.00 |
| Cc1ncc(-c2cc(F)cc(C(=O)Nc3ccc4c(c3)CNC4)c2)s1 | < 4.00 | < 4.00 |
| O=C(Nc1cc(-c2cccnc2)ccn1)c1ccc(C2CC2)cc1 | < 4.00 | < 4.00 |

| Compound | pIC50 (Genome polyprotein [1]) | pIC50 (Genome polyprotein [2]) |
| --- | --- | --- |
| O=C(Nc1ccc2c(c1)CNC2)c1cc(F)cc(-c2c[nH]c(=O)c(F)c2)c1 | < 4.00 | < 4.00 |
| C=Cc1cc2c(cc1NC(=O)c1cc(F)cc3[nH]ncc13)CNC2 | 4.28 | 4.48 |
| COc1cc(C(=O)Nc2ccc3c(c2)CNC3)cc2cnn(C)c12 | < 4.00 | < 4.00 |
| Cc1oc(C2CC2)nc1C(=O)Nc1cc(-c2cccnc2)ccn1 | < 4.00 | < 4.00 |
| Cc1c(C(=O)Nc2cccc(-c3cccnc3)c2)cc(C2CC2)n1C | < 4.00 | < 4.00 |
| O=C(Nc1cc([C@H]2CCOC2)ccn1)c1cc(Cl)cc2[nH]ncc12 | < 4.00 | < 4.00 |
| Cc1nn(C)c(C)c1[C@H]1CCCN1C(=O)Nc1ccc2c(c1)CNC2 | < 4.00 | < 4.00 |
| CC(C)NC(=O)[C@H](Nc1ccc2c(c1)CNC2)c1cccc2cn[nH]c12 | < 4.00 | < 4.00 |
| O=C(Nc1cc2c(cc1C1CC1)CNC2)c1cc(F)cc2[nH]ncc12 | 4.15 | 4.20 |
| C#C[C@H](Nc1cc([C@H]2CCOC2)ccn1)c1cc(C2CC2)n(C)n1 | < 4.00 | < 4.00 |
| CC(C)NC(=O)[C@H](Nc1ccc2c(c1)CN(CC(F)F)C2)c1cc(Cl)cc2[nH]ncc12 | < 4.00 | < 4.00 |
| O=C(Nc1ccc2c(c1)CNC2)c1cc(F)cc(/C=C/c2ccccc2)c1 | 4.38 | 4.24 |
| O=C(NCC(F)F)[C@H](Nc1ccc2c(c1)CNC2)c1cc(Cl)cc2[nH]ncc12 | < 4.00 | < 4.00 |
| Cn1ncc2c(C(=O)Nc3ccc4c(c3)CNC4)cc(Cl)cc21 | < 4.00 | < 4.00 |
| COCCNC(=O)[C@H](Nc1cccc([C@H]2CCOC2)c1)c1cc(F)cc2[nH]ccc12 | < 4.00 | < 4.00 |
| O=C(Nc1ccc2c(c1)CN[C@H]2CCO)c1cc(F)cc2[nH]ncc12 | 4.29 | 4.62 and 4.52 |
| C=CC[C@H]1NCc2cc(NC(=O)c3cc(F)cc4c3CC(=O)N4)ccc21 | 4.50 | 4.50 and 4.63 |
| Cc1cnccc1-c1cc(NC(=O)c2cc(F)cc3[nH]ncc23)cc2c1CNC2 | < 4.00 | 4.18 |
| O=C(Nc1cc([C@H]2CCOC2)ccn1)c1cc(Br)cc2[nH]ccc12 | < 4.00 | < 4.00 |
| O=C(O)CCCc1cc(NC(=O)c2cc(F)cc3[nH]ncc23)cc2c1CNC2 | < 4.00 | 4.31 |
| O=C(Nc1ccc2c(c1)CNC2)c1ccc2ccncc2c1 | < 4.00 | < 4.00 |

| Compound | pIC50 (Genome polyprotein [1]) | pIC50 (Genome polyprotein [2]) |
| --- | --- | --- |
| O=C(Nc1ccc2c(c1)CNC2)c1cc(Cl)cc2nn(C3CCC3)cc12 | < 4.00 | 4.05 |
| Cc1cc(-c2cc(F)cc(C(=O)Nc3ccc4c(c3)CNC4)c2)[nH]n1 | < 4.00 | < 4.00 |
| O=C(Nc1ccc2c(c1)CNC2)c1cc(Cl)cc2c1cnn2C1CCOCC1 | < 4.00 | < 4.00 |
| Cn1cc2c(C(=O)Nc3ccc4c(c3)CNC4)cc(Cl)cc2n1 | < 4.00 | < 4.00 |
| O=C(Nc1cc([C@H]2CCOC2)ccn1)c1cc(F)c2[nH]ccc2c1 | < 4.00 | < 4.00 |
| CSCCNC(=O)[C@H](Nc1ccc2c(c1)CNC2)c1cc(Cl)cc(C2CC2)c1 | < 4.00 | < 4.00 |
| CS(=O)(=O)N1CC[C@]2(C1)C(=O)Nc1cccc(C(=O)Nc3ccc4c(c3)CNC4)c12 | < 4.00 | < 4.00 |
| COc1ccc([C@H]2C[C@H](C)CN2C(=O)Nc2ccc3c(c2)CNC3)cc1 | < 4.00 | < 4.00 |
| Cc1c(C(=O)Nc2cc(-c3cccnc3)ccn2)cc(CC(C)(C)C)n1C | < 4.00 | < 4.00 |
| CSCCCNC(=O)[C@H](Nc1ccc2c(c1)CNC2)c1cc(Cl)cc(C2CC2)c1 | < 4.00 | < 4.00 |
| O=C(Nc1ccc2c(c1)CNC2)c1cc(F)cc(-c2ccnn2CC2CC2)c1 | < 4.00 | < 4.00 |
| CC(C)(C)c1noc2nc(C(=O)Nc3ccc4c(c3)CNC4)ccc12 | < 4.00 | < 4.00 |
| O=C(Nc1ccc2c(c1)CNC2)c1cc(F)cc2nn(-c3ccccn3)nc12 | 5.30 and 5.37 | 5.39 and 5.41 |
| O=C(Nc1cc(-c2cccnc2)ccn1)c1c[nH]c2ncccc12 | < 4.00 | < 4.00 |
| COCCCNC(=O)[C@H](Nc1ccc2c(c1)CNC2)c1cc(Cl)cc(C2CC2)c1 | < 4.00 | < 4.00 |
| O=C(Nc1ccc2c(c1)CN[C@H]2C[C@H](O)CO)c1cc(Cl)cc2[nH]ncc12 | < 4.00 | 4.10 |
| O=C(Nc1ccc2c(c1)CNC2)c1ccc2c(Br)csc2c1 | 4.23 | < 4.00 |
| C=C[C@H]1NCc2cc(NC(=O)c3cc(F)cc4[nH]ncc34)ccc21 | 4.06 | 4.47 |
| O=C(Nc1cc2c(c(-c3ccnnc3)c1)CNC2)c1cc(Cl)cc2[nH]ncc12 | < 4.00 | 4.01 |
| CC(C)(C)OC(=O)N1Cc2ccc(NC(=O)c3ccc4c(Br)csc4c3)cc2C1 | < 4.00 | < 4.00 |
| O=C(Nc1ccc2c(c1)CNC2)c1cc(F)cc(-c2ccncc2)c1 | < 4.00 | < 4.00 |

From ChEMBL document CHEMBL5604063, “ASAP - DENV-2 NS2B-NS3 protease fluorescence dose response” (2024)
